Data on two compounds can be found in patent US11752158B2 (priority 2007, dated 2023).

A short description of data set [1]: Serum metabolites of 25-hydroxyvitamin D3 and 25-hydroxyvitamin D2 (Example 1, FIG. 4 and 5). The class given is in vivo, rat. The method, then:
(§1) The concentration of total 25-hydroxyvitamin D at 120 hours post initial dose was determined in serum samples using a high-performance liquid chromatographic method using tandem mass spectrometry detection. The method was utilized to determine the individual concentrations of 25-hydroxyvitamin D3 and 25-hydroxyvitamin D2 in serum and the total was determined as a sum of the concentrations. At 24 h post final dose, serum collected from animals was analyzed for changes in levels of 25-hydroxyvitamin D3, 25-hydroxyvitamin D2 and their metabolites.

The test system of data set [2] is patients with advanced prostate cancer. Conditions: human, in vivo, po. The source says: The efficacy and safety of an oral preparation of 25-hydroxyvitamin D2 is examined in a 3-month study of patients with advanced prostate cancer being treated with high-dose calcitriol once per week. For this study, 25-hydroxyvitamin D2 was formulated in soft-gelatin capsules. Forty patients with advanced prostate cancer undergoing treatment with high-dose calcitriol and Docetaxel were divided into two equal groups. Along with weekly calcitriol doses, group #1 receives between 2-20 mcg 25-hydroxyvitamin D2, while group #2 receives placebo. Prior to enrolling, all subjects provide two fasting morning blood samples, separated by at least one week, to establish pre-treatment baseline values of serum calcium, plasma intact PTH, and serum 25-hydroxyvitamin D. Additional fasting blood samples and 24-hour urine collections are obtained from each subject 24 h following the administration of the weekly administration of calcitriol for determination of serum calcium and serum 25-hydroxyvitamin D. Throughout the study, all subjects adhere to a daily intake of approximately 1,000 to 1,500 mg of elemental calcium (from self-selected diets and calcium supplements, as needed) under the ongoing guidance of a dietician. At the conclusion of the study, the laboratory data are analyzed by treatment group and by test formulation after appropriate correction for baseline values.

Data set [3] concerns male Sprague-Dawley rats. Description: Gross necropsy after 5-day i.v. dosing (Example 1). The class given is in vivo, rat. Conditions: i.v. once a day for 5 days. The procedure: (§2) To examine the reduction of toxicity associated with the co-administration of 25-hydroxyvitamin D3 with 25-hydroxyvitamin D2 compared to 25-hydroxyvitamin D3 alone, 90 male Sprague-Dawley rats are treated intravenously for five consecutive days with various combinations of 25-hydroxyvitamin D3 and 25-hydroxyvitamin D2. One day prior to the initiation of the study, rats are randomly selected, assigned to groups and treated as follows in Table 3:
(§3) For each day's treatment of each animal, the appropriate material was administered i.v. Daily treatments were performed within a 3 hours window on each day. On the first day of treatment (pre-dose) and at 24 hours time points on day 2 before the second dose administration (0 being the time of the first injection), blood (˜1 mL) was collected from the jugular vein catheter from animals in Group 1 to 15 into unpreserved tubes. The serum was separated out, transferred into new tubes that were immediately frozen at approximately −80° C. Prior to the sacrifice of all animals at 120 hours on Day 6 blood (˜2 mL) was collected into unpreserved tubes from the jugular vein catheter from all animals. […] For each animal, the necropsy consisted of an external examination, including reference to all clinically recorded lesions, as well as internal “abbreviated” examinations.

Data set [4] deals with male Sprague-Dawley rats. Description: Serum calcium levels after 5-day i.v. dosing (Example 1, FIG. 2). The class given is in vivo, rat. The conditions noted are these: Group 11: 6 μg/kg 25-hydroxyvitamin D3 alone, 5 day treatment period. The method, then: as §2, §3
A short description of data set [5]: Total serum 25-hydroxyvitamin D by LC-MS/MS (Example 1, FIG. 1). The conditions noted are these: indicated dosing, daily for a period of 5 days; 120 hours post initial dose. The class given is in vivo, rat. The method, then: as §2, §1
Data set [6] concerns male Sprague-Dawley rats. Kind of data set: Serum calcium levels at day 5 (Example 2, FIG. 6). Conditions: i.v. once a day for 5 days. The class given is in vivo, rat. The method, then: Another study was carried out to assess the effects of co-administration of 25-hydroxyvitamin D with 25-hydroxyvitamin D2 compared to 25-hydroxyvitamin D3 alone on 102 male Sprague-Dawley rats. Rats about […], about 175-250 g in weight, were divided into groups of six males each. The groups were administered various combinations of 25-hydroxyvitamin D3 and 25-hydroxyvitamin D2 intravenously (or the same volume of control vehicle) once daily via the jugular vein catheter, for five consecutive days, according to Table 5 below.
Dosing was carried out at similar times each day, within a three hour window of the time of last dose. Blood was collected at day 0 (the first day of treatment) for analysis, and animals were monitored twice daily. Animals from all groups were euthanized on day 5, 24 hours after the last dose, and blood was collected by cardiac puncture. All rats were subjected to an abbreviated necropsy.

For data set [7], the system named is patients with end-stage renal disease (ESRD). Kind of data set: Serum calcium in end-stage renal disease patients on hemodialysis (Example 4). The conditions noted are these: i.v. thrice weekly. The class given is in vivo, human. The method, then: (§4) The formulations examined in this study are aqueous isotonic and sterile solutions containing either 20 mcg of 25-hydroxyvitamin D3 alone (test preparation #1) or in combination with 10 mcg 25-hydroxyvitamin D2 (test preparation #2). A total of 75 […] Caucasian, Asian, Hispanic and African-American subjects participate in this study, all of whom are at least 4-months on regular hemodialysis and have serum 25-hydroxyvitamin D levels below 15 ng/mL. Prior to enrolling, all subjects provide two fasting morning blood samples, separated by at least one week, to establish pre-treatment baseline values of serum calcium, plasma intact PTH, and serum 25-hydroxyvitamin D. On the morning of Day 1, the subjects are randomly assigned to one of three treatment groups, and they begin thrice weekly dosing with the test preparation #1 or #2, or with a matching placebo. All dosing occurs during regularly scheduled hemodialysis sessions and is accomplished by gradual injection (over a period of 1 to 5 minutes) into the blood exiting from the hemodialysis machine. […] At the conclusion of the study, the laboratory data are analyzed by treatment group and by test formulation after appropriate correction for baseline values. […]

Data set [8] can be described thus: Serum 25-hydroxyvitamin D in end-stage renal disease patients on hemodialysis (Example 4). The class given is in vivo, human. Conditions: i.v. thrice weekly, 20 mcg 25-hydroxyvitamin D3 alone or with 10 mcg 25-hydroxyvitamin D2; first 3 months of dosing, steady state thereafter. The procedure:
as §4

“And” between values parts separate entries of the source, which are not always exact repeats. Equal entries are not always repeated. “Also recorded” adds a separate entry of the source.

As to `C=C1CC[C@H](O)C/C1=C/C=C1\CCC[C@]2(C)[C@@H]([C@H](C)/C=C/[C@H](C)C(C)(C)O)CC[C@@H]12` [25-hydroxyvitamin D2], the “metabolism / catabolism of the prohormone” value in data set [1] (rat, in vivo) was “catabolized more readily to 24, 25-dihydroxyvitamin D2”. The “episodes of hypercalcemia (serum calcium above 10.2 mg/dL)” value in data set [2] is reported as “more frequently observed in the placebo group than in the treatment group”.
In the case of `C=C1CC[C@H](O)C/C1=C/C=C1\CCC[C@]2(C)[C@@H]([C@H](C)CCCC(C)(C)O)CC[C@@H]12` [25-hydroxyvitamin D3], the “Gross Necropsy Findings” value is “None” in the data set on male Sprague-Dawley rats [3] (Group 6: 25-hydroxyvitamin D2 0 μg/kg, 25-hydroxyvitamin D3 0.3 μg/kg); “Severe signs of toxicity (blood in the lungs) and 4 of 6 animals treated exhibiting blood in lung tissue and 4/6 animals had” in the data set with male Sprague-Dawley rats [3] (Group 11: 25-hydroxyvitamin D2 0 μg/kg, 25-hydroxyvitamin D3 6 μg/kg). Also, in the data set on male Sprague-Dawley rats [4], the serum calcium levels result is “highest achieved level of serum calcium; also recorded: hypercalcemia”. In data set [5], the “total serum 25-hydroxyvitamin D” value is listed as “elevation”. Moreover, the “metabolism / catabolism of the prohormone” value in data set [1] (observation in rats, serum 24 h post final dose) is “catabolized more readily to the active 1,25-dihydroxyvitamin D3 form”. Further, the “Serum calcium levels at day 5” value in the data set on male Sprague-Dawley rats [6] (4 μg/kg 25-hydroxyvitamin D3 alone) and with male Sprague-Dawley rats [6] (8 μg/kg 25-hydroxyvitamin D3 alone) was “hypercalcemia” in each case. Further, the mean serum calcium entry in data set [7] (20 mcg 25-hydroxyvitamin D3 alone or with 10 mcg 25-hydroxyvitamin D2, 3-month study) is “increase significantly from baseline”. In addition, the “episodes of hypercalcemia (serum calcium above 10.2 mg/dL)” value in data set [7] (20 mcg 25-hydroxyvitamin D3 alone, 3-month study) is listed as “more frequently observed”. In data set [8], the “serum 25-hydroxyvitamin D levels” value is on record as “progressively increasing”.
